# Data taken from US7964636B2, “Synthesis and use of novel inhibitors and inactivators of protein arginine deiminases” (University of South Carolina, priority 2005, dated 2011).
# Read-outs that look alike come from different tables or passages of the source.
# Key:
# PAD4 [1] = biological target: T1, PAD4 (Homo sapiens, UniProt Q9UM07); settings: cited from earlier work
# PAD4 [2] = biological target: T1, PAD4; test: IC50 assays (Example 2); format: biochemical; settings: for IC50: 10 mM BAEE; for inhibition at the highest concentration tested: 500 μM
# Protocol: BAEE was then added to a final concentration of 10 mM to initiate the reaction. Reactions were then quenched after a further 15 min by flash freezing. The amount of Cit produced in the reaction was quantified using our assay for Cit production.
# PAD4 [3] = biological target: T1, PAD4; test: Time course assays / inactivation kinetics (Example 2); format: biochemical; settings: 2 mM BAEE
# PAD4 [4] = biological target: T1, PAD4; test: Time course inhibition assays (Example 1); settings: 10 mM BAEE, 10 mM CaCl2
# Protocol: Time course experiments were performed in assay buffers containing 10 mM BAEE, 100 mM HEPES (pH 7.6), 50 mM NaCl, 500 μM TCEP and 10 mM CaCl2 in the presence of various amounts of inhibitors. The assay buffers were pre-incubated at 37° C. for 10 minutes. […] At different time points, 60 μl of the reactions was withdrawn and quenched by flash freezing in liquid nitrogen. Color development and absorbance measurement at 540 nm of the samples were done as described in IC50 assays. […] [P]=vi[1−exp(−kobst)]/kobs (Eq. 2) where vi is the initial velocity, kobs is the pseudo-first-order rate constant, and [P] refers to the concentration of citrulline produced during the reaction process.
# PAD4 [5] = biological target: T1, PAD4; test: H3-amidine inhibition assays; format: biochemical; settings: BAEE substrate; 0, 5, 10 mM H3-amidine; read-out: Kis (linear competitive inhibition)
# Protocol: Initial rates were determined in the absence and presence of various amounts of H3-amidine (0, 5, 10 mM), using BAEE as the substrate. […] After incubation at 37° C. for 15 min, the reactions were quenched and the amount of Cit produced quantified. The initial rates derived from these experiments were fit by non-linear least fit squares to equations representing linear competitive inhibition (Equation 4) and linear noncompetitive inhibition (Equation 5), using the using the GraFit™ version 5.0.11 software package. v=Vm[S]/(Km(1+[I]/Kis)+[S]) (Eq. 4) v=Vm[S]I(Km(1+[I]/Kis)+[S](1+[I]/Kii)) (Eq. 5)
# Kii represents Ki intercept and Kis represents Ki slope. Comparisons of the standard errors derived from fits of the data to Equations 4 and 5 are most consistent with H3-amidine being a competitive inhibitor.
# PAD4 [6] = biological target: T1, PAD4; test: Inhibition assays with compound 1 (mode of inhibition, BAEE substrate); format: biochemical; settings: 0, 5, 10 mM compound 1, read-out: Kis (linear competitive inhibition)
# PAD4 [7] = biological target: T1, PAD4; test: IC50 assays of compounds 1, 2 and 3 (Example 1); settings: pre-incubation with PAD4 and Ca2+ (10 mM) for 10 min; BAEE 1 mM final; 20 min
# Protocol: PAD4 used in this work was GST-cleaved full-length PAD4 that was purified. A recombinant human PAD4 Escherichia coli expression system that was obtained from the Yamada group was transformed into E. coli Rosetta cells (EMD Biosciences) for the expression of fall-length PAD4 with an 8-residue N-terminal linker that is fused in frame to a PreScission protease cleavable GST tag.
# The aforementioned reaction mixtures were pre-incubated with PAD4 (0.5 μM) at 37° C. for 10 minutes prior to the addition of BAEE (1 mM final concentration) to initiate the reaction. After 20 minutes the reactions were quenched by flash freezing in liquid nitrogen. […] The absorbance at 540 μm was then measured and compared to a Cit standard curve to determine the concentration of Cit produced during the course of the reactions.
# PAD4 [8] = settings: known PAD inhibitor; cited from earlier work
# [9] = preincubation with PAD4 in 10 mM calcium for 15 min, read-out: IC50
# T1 sequence (Q9UM07 whole entry): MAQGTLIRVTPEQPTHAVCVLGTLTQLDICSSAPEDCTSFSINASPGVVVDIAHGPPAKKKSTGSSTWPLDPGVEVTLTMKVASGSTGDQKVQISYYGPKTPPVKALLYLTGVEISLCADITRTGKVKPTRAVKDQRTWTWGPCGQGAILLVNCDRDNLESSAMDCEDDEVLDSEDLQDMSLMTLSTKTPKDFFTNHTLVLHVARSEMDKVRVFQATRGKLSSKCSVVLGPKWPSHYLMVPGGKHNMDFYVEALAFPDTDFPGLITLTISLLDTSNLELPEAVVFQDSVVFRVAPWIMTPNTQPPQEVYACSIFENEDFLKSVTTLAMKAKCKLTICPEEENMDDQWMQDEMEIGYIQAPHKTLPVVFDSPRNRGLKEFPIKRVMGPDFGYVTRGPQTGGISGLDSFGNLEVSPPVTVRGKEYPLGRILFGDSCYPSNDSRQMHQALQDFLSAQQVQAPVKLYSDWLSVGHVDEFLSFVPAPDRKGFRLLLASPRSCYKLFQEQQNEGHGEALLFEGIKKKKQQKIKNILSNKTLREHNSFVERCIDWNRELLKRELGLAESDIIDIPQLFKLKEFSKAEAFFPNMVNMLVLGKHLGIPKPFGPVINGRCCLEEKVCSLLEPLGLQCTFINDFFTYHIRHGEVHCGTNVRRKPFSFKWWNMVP
SMILES,IC50 (PAD4 [2]; [9]) [µM],time course of product formation (PAD4 [3]),also measured
N=C(N)CCl [2-chloroacetamidine],–,–,Ki (PAD4 [1]): 20000 µM; kinact/KI (PAD4 [1]; reported by the Fast group): 0.583 M⁻¹ s⁻¹
"N=C(CCl)NCC[C@H](NC(=O)c1ccccc1)C(N)=O [Cl2-amidine, N-α-benzoyl-N^4-(2-chloro-1-iminoethyl)-L-Dab amide]",585 ± 65,–,–
"NC(=O)[C@H](CCCNC(=O)CCl)NC(=O)c1ccccc1 [Cl3-acetamide, N-α-benzoyl-N^5-(2-chloroacetyl)-L-Orn amide]",> 500,–,inhibition at the highest concentration tested (PAD4 [2]): no inhibition
"N=C(CCl)NCCCC[C@H](NC(=O)c1ccccc1)C(N)=O [Cl4-amidine, N-α-benzoyl-N^6-(2-chloro-1-iminoethyl)-L-Lys amide]",640 ± 10,–,–
"N=C(CF)NCC[C@H](NC(=O)c1ccccc1)C(N)=O [F2-amidine, N-α-benzoyl-N^4-(2-fluoro-1-iminoethyl)-L-Dab amide]",> 1000,linear with respect to time,observed activity (PAD4 [2]; at 1000 μM): 93 % of control
"NC(=O)[C@H](CCCNC(=O)CF)NC(=O)c1ccccc1 [F3-acetamide, N-α-benzoyl-N^5-(2-fluoroacetyl)-L-Orn amide]",–,–,"inhibition at the highest concentration tested (PAD4 [2]): no inhibition; IC50 (PAD4 [2]; IC50, preincubation with PAD4 in 10 mM calcium for 15 min): > 500 µM"
"N=C(CF)NCCC[C@H](NC(=O)c1ccccc1)C(N)=O [F3-amidine, N-α-benzoyl-N^5-(2-fluoro-1-iminoethyl)-L-ornithine amide]",–,–,time dependence of inhibition (progress curves) (PAD4 [4]): time dependent inhibition properties
"N=C(CF)NCCCC[C@H](NC(=O)c1ccccc1)C(N)=O [F4-amidine, N-α-benzoyl-N^6-(2-fluoro-1-iminoethyl)-L-Lys amide]",655 ± 100,–,–
"CC(=N)NCC[C@H](NC(=O)c1ccccc1)C(N)=O [H2-amidine, N-α-benzoyl-N^4-(1-iminoethyl)-L-Dab amide]",> 1000,linear with respect to time,–
"CC(=N)NCCC[C@H](NC(=O)c1ccccc1)C(N)=O [H3-amidine, N-α-benzoyl-N^5-(1-iminoethyl)-L-Orn amide]",> 1000,linear with respect to time,Ki (PAD4 [5]): 3200 ± 900 µM
"CC(=N)NCCCC[C@H](NC(=O)c1ccccc1)C(N)=O [H4-amidine, N-α-benzoyl-N^6-(1-iminoethyl)-L-Lys amide]",> 1000,linear with respect to time,–
"CC(=N)NCCC[C@H](NC(=O)c1ccccc1)C(=O)O [H-Amidine, N-α-benzoyl-N^5-(1-iminoethyl)-L-ornithine]",–,–,Ki (PAD4 [6]): 1700 ± 200 µM; time dependence of inhibition (progress curves) (PAD4 [4]): does not display time dependent inhibitory properties; IC50 (PAD4 [7]): 4300 ± 700 µM
CC(=O)O[C@H]1C(=O)[C@@]2(C)[C@H]([C@H](OC(=O)c3ccccc3)[C@]3(O)C[C@H](OC(=O)[C@H](O)[C@@H](NC(=O)c4ccccc4)c4ccccc4)C(C)=C1C3(C)C)[C@]1(OC(C)=O)CO[C@@H]1C[C@@H]2O [taxol],–,–,IC50 (PAD4 [8]): ~5000 µM
